In patent US9226929B2, “Pharmaceutically active disubstituted triazine derivatives” (Bayer Intellectual Property GMBH, priority 2011, dated 2016):

What was measured:
[1] = biological target: T1, CDK7/CyclinH/MAT1 (Homo sapiens, UniProt P50613); assay: Lance Ultra KinaSelect Assay, CDK7; type: biochemical; settings: ATP 25 μM; read-out: CDK7 LANCE assay (activity range), IC50
T1 construct: His; purchased Carna Biosciences
Procedure: (§1) 2. Measurement of half maximal inhibitory concentration to CDKs This protocol describes how the Lance Ultra KinaSelect Assay was performed to determine half maximal inhibitory concentration (1050) of compounds of general formula (I) and CDK/Cyclin complexes. The principle behind this enzymatic assay is based upon the phosphorylation of the ULight-Peptide Substrat. It is detected by using a specific
(§2) EU-labeled anti-phospho peptide antibody. The binding of the Eu-labeled anti-phospho peptide antibody to the phosphorylated ULight labeled peptide gives rise to a FRET-signal. Binding of an inhibitor to the kinase prevents phosphorylation of the ULight-MBP Substrat, resulting in a loss of FRET.
(§3) The compounds of general formula (I) summarized in Table 5 were diluted from a 10 mM DMSO stock solution 1:10 in a total volume of 15 μL DMSO. This compound predilution was then serial diluted 1:3 over 8 steps in DMSO and briefly spun down. Each compound solution was now diluted 1:20 in Enzymatic Buffer (HEPES: 50 mM, pH: 7.5; MgCl2: 10 mM; EGTA: 1 mM; DTT: 2 mM; Tween-20: 0.01%), mixed thoroughly and spun down. For every sample, 2 μL of the diluted compound were mixed with 6 μL CDK/Cyclin/Substrat solution and 2 μL ATP solution in a well of a small volume 384 well plate (Corning Incorporated, Corning, N.Y., USA; order no. 3673). The CDK/Cyclin was diluted to the appropriate concentration (see Table 3) and the ATP concentration was adjusted to its […] for the CDK/Cyclin, which was 3 μM for CDK2/Cyclin A, 20 μM for CDK1/Cyclin B1, 25 μM for CDK7/Cyclin H and CDK9/Cyclin T1, 55 μM for CDK6/Cyclin D3, 90 μM for CDK4/Cyclin D1 and 125 μM for CDK9/Cyclin K. For negative controls, in each well 2 μL of DMSO solution (1% final DMSO assay concentration) was mixed with 6 μL substrate solution (50 nM ULight MBP final assay concentration) and 2 μL ATP solution (appropriate final concentration see Table 3). For positive controls, in each well 2 μL of DMSO solution (1% final DMSO assay concentration) was mixed with 6 μL CDK/Cyclin/Substrat (appropriate final concentration see Table 3) and 2 μL Tracer ATP solution (appropriate final concentration see Table 3). Positive and negative controls were calculated from at least 8 different sample wells. The 384 well plates were mixed in a Teleshaker plate mixer (Beckman Coulter, Brea, Calif., USA) at 2000 rpm for 40 sec, and incubated for 1 h at room temperature. Before reading, 10 μL the detection buffer (Lance Detection Buffer 1×; EDTA: […]; Eu-Anti-P-MBP: see Table 3) was added. The FRET signal was measured at 340 nm excitation, 665 nm and 615 nm emission (for the kinase tracer and LanthaScreen Eu-AB, respectively) with an Envision spectrophotometer (Perkin Elmer, Waltham, Mass., USA) with 50 μs delay and 300 μs integration time. IC50 values were determined from the sigmoidal dose response curves with the software Quattro Workflow (Quattro GmbH, Munich, Germany).

[2] = biological target: T2, CDK2/CyclinA (Homo sapiens, UniProt P24941); assay: Lance Ultra KinaSelect Assay, CDK2; type: biochemical; settings: ATP 3 μM; read-out: CDK2 LANCE assay (activity range), IC50
T2 construct: GST; purchased Proqinase
Procedure: as §1, §2, §3

[3] = biological target: T2, CDK2/CyclinA; assay: LanthaScreen Eu Kinase Binding Assay, CDK2; settings: tracer 236, read-out: CDK2 (activity range), Kd
Procedure: This protocol describes how the LanthaScreen Eu Kinase Binding Assay was performed to determine dissociation constants (Kd) of compounds of general formula (I) and CDK/Cyclin complexes. The principle behind this assay is based upon the binding and displacement of an Alexa Fluor 647-labeled tracer, which binds to the active site of kinases. Binding of the tracer to the kinase is detected using a Eu-labeled antibody. Simultaneous binding of both the tracer and antibody to the kinase gives rise to a FRET-signal. Binding of an inhibitor to the kinase competes for binding with the tracer, resulting in a loss of FRET.
The compounds of general formula (I) summarized in Table 1 were diluted from a 10 mM DMSO stock solution 1:10 in a total volume of 15 μL DMSO. This compound predilution was then serial diluted 1:3 over 8 steps in DMSO and briefly spun down. Each compound solution was now diluted 1:33.33 in kinase buffer (HEPES: 20 mM, pH: 8.0; MgCl2: 10 mM; DTT: 1 mM; Brij-35: 0,01%), mixed thoroughly and spun down. For every sample, 5 μL of the diluted compound were mixed with 5 μL tracer working solution (e.g. 60 nM tracer 236 in kinase buffer for CDK2/Cyclin A) and 5 μL CDK/Cyclin/Anti-GST-AB-working solution (e.g. 15 nM CDK2/Cyclin A, 1:250 dilution of Anti-GST-AB in kinase buffer) in a well of a small volume 384 well plate (Corning Incorporated, Corning, N.Y., USA; order no. 3673). The tracer concentration was adjusted to its dissociation constant (Kd) for the CDK/Cyclin, which was 30 nM for CDK2/Cyclin A, CDK7/Cyclin H and CDK9/Cyclin T1, 20 nM for CDK8/Cyclin C, and 35 nM for CDK9/Cyclin K. For negative controls, in each well 5 μL of DMSO working solution (3% DMSO diluted in kinase buffer) was mixed with 5 μL Anti-GST-AB working solution (e.g. 1:250 dilution of Anti-GST-AB in kinase buffer for CDK2/Cyclin A) and 5 μL Tracer working solution (e.g. 60 nM Tracer 236 in kinase buffer for CDK2/Cyclin A). For positive controls, in each well 5 μL of DMSO working solution (3% DMSO diluted in kinase buffer) was mixed with 5 μL CDK/Cyclin/Anti-GST-AB-working solution: (e.g. 15 nM CDK2/Cyclin A, 1:250 dilution of Anti-GST-AB in kinase buffer) and 5 μL Tracer working solution (e.g. 60 nM Tracer 236 in kinase buffer for CDK2/Cyclin A). Positive and negative controls were calculated from at least 8 different sample wells. The 384 well plates were mixed in a Teleshaker plate mixer (Beckman Coulter, Brea, Calif., USA) at 2000 rpm for 40 sec, and incubated for 1 h at room temperature before reading. The FRET signal was measured at 340 nm excitation, 665 nm and 615 nm emission (for the kinase tracer and LanthaScreen Eu-AB, respectively) with an Envision spectrophotometer (Perkin Elmer, Waltham, Mass., USA) with […]. Kd values were determined from the sigmoidal dose response curves with the software Quattro Workflow (Quattro GmbH, Munich, Germany).

[4] = biological target: T3, CDK9/Cyclin T1 (Homo sapiens, UniProt P50750); assay: LanthaScreen Eu Kinase Binding Assay, CDK9/Cyclin T1; settings: tracer 236, read-out: CDK9/Cyclin T1 (activity range), Kd
T3 construct: His; purchased Invitrogen
How it was run: (§4)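 TR-FRET displacement of an Alexa Fluor 647 active-site tracer, detected with a Eu anti-GST antibody, over an 8-point 1:3 compound series. Tracer was set at its Kd (30 nM for CDK2/Cyclin A, CDK7 and CDK9/Cyclin T1; 35 nM for CDK9/Cyclin K). Read after 1 h at room temperature; Kd was fitted from sigmoidal curves.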

[5] = biological target: T4, CDK9/Cyclin K (Homo sapiens, UniProt P50750); assay: LanthaScreen Eu Kinase Binding Assay, CDK9/Cyclin K; settings: tracer 236, read-out: CDK9/Cyclin K (activity range), Kd
T4 construct: His; purchased Invitrogen
How it was run: as §4

T3 sequence (P50750 whole entry): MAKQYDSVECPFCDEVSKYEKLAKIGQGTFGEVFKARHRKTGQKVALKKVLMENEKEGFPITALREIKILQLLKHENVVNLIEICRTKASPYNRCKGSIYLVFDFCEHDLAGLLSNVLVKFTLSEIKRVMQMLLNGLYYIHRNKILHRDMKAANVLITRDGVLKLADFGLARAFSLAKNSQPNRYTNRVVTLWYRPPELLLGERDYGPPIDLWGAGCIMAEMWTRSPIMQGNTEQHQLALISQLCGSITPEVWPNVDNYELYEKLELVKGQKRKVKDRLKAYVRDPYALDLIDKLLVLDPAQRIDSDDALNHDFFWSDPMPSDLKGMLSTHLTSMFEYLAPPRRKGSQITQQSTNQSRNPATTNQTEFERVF
T3 sequence (O60563 whole entry partner): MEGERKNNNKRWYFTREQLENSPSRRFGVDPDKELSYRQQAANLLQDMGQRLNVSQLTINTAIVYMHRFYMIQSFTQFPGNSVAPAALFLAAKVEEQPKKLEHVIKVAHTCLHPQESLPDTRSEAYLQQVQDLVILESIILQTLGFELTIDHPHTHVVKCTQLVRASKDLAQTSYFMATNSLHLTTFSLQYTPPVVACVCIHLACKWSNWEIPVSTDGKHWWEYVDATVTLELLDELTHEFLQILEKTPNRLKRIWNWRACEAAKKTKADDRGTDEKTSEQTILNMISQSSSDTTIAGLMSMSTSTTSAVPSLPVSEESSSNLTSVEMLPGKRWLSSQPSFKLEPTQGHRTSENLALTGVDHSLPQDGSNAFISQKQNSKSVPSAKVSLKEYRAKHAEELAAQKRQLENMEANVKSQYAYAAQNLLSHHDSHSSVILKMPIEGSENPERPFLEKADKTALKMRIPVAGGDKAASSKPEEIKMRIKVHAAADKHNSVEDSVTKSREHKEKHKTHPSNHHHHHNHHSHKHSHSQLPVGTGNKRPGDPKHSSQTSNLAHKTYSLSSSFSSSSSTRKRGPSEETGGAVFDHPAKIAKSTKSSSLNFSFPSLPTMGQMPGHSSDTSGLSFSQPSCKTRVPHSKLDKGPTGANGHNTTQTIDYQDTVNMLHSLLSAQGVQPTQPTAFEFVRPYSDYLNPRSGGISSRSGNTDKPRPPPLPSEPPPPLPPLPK
T4 sequence (P50750 whole entry): as the sequence (P50750 whole entry) above
T4 sequence (O75909 1-357 isoform O75909-1 partner): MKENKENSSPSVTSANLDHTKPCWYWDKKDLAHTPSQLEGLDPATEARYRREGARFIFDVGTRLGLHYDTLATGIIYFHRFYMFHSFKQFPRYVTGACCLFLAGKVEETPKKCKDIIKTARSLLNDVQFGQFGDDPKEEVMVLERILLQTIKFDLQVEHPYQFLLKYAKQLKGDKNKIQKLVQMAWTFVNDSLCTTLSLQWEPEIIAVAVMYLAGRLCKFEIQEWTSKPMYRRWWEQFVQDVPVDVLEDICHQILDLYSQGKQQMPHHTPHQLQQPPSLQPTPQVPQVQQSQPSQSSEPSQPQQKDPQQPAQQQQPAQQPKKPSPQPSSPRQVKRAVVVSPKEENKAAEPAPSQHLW
T1 sequence (P50613 whole entry): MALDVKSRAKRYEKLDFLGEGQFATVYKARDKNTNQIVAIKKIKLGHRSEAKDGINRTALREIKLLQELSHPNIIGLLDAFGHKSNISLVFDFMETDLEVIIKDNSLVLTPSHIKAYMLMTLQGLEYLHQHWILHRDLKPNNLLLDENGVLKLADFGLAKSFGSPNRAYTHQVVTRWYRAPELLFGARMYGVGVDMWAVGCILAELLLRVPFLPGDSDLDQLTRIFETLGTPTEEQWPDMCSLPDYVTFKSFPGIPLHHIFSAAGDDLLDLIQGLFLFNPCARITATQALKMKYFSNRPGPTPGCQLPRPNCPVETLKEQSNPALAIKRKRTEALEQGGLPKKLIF
T1 sequence (P51946 whole entry partner): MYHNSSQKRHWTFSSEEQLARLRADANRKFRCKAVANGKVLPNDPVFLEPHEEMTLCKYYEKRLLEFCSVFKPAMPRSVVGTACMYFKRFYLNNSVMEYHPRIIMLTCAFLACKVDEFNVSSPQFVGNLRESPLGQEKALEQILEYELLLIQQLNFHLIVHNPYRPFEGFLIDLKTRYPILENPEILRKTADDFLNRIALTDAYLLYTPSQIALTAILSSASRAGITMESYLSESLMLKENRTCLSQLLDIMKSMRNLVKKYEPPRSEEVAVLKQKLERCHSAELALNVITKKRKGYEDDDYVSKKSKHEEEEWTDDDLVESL
T1 sequence (P51948 whole entry partner): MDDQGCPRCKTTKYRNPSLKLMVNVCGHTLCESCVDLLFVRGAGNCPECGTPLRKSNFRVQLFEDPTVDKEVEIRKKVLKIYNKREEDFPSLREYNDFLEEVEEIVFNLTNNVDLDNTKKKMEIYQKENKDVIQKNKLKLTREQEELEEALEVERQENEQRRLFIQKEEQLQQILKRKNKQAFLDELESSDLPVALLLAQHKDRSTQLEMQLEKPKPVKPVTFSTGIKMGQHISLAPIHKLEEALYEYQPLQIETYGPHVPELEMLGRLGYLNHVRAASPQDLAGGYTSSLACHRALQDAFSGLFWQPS

| SMILES | IC50 [1] [µM] | IC50 [2] [µM] | Kd [3] [µM] | Kd [4] [µM] | Kd [5] [µM] |
| --- | --- | --- | --- | --- | --- |
| NS(=O)(=O)Cc1cccc(Nc2ncnc(N3CCc4nc[nH]c4C3)n2)c1 [Compound B44, 3-[(4-(6,7-Dihydro-3H-imidazo[4,5-c]pyridin-5(4H)-yl)-1,3,5-triazin-2-yl)amino]benzenemethanesulfonamide] |  |  | < 0.1 | < 0.1 | < 0.1 |
| NS(=O)(=O)Cc1cccc(Nc2ncnc(N3CCCC3c3ccccc3)n2)c1 (racemic) [Compound B33, rac-3-[(4-(2-Phenylpyrrolidin-1-yl)-1,3,5-triazin-2-yl)amino]-benzenemethanesulfonamide] | > 10 | > 10 |  | < 0.1 | < 0.1 |
| COC(=O)[C@H]1CCCN1c1ncnc(Nc2cccc(CS(N)(=O)=O)c2)n1 [Compound B21, (R)-Methyl 1-[4-((3-(Sulfamoylmethyl)phenyl)amino)-1,3,5-triazin-2-yl]pyrrolidine-2-carboxylate] |  |  | 1 to 10 | < 0.1 | 0.1 to 1 |
| NS(=O)(=O)Cc1cccc(Nc2ncnc(N3CCCn4nccc43)n2)c1 [Compound B47, 3-[(4-(6,7-Dihydropyrazolo[1,5-a]pyrimidin-4(5H)-yl)-1,3,5-triazin-2-yl)amino]benzenemethanesulfonamide] | 1 to 10 | < 0.1 | < 0.1 | < 0.1 | < 0.1 |

More lines, now with the values ahead:

| IC50 [1] [µM] | IC50 [2] [µM] | Kd [3] [µM] | Kd [4] [µM] | Kd [5] [µM] | SMILES |
| --- | --- | --- | --- | --- | --- |
| 1 to 10 | < 0.1 | < 0.1 | < 0.1 |  | NS(=O)(=O)Cc1cccc(Nc2ncnc(N3CCc4ncsc4C3)n2)c1 [Compound B45, 3-[(4-(6,7-Dihydrothiazolo[5,4-c]pyridin-5(4H)-yl)-1,3,5-triazin-2-yl)amino]benzenemethanesulfonamide] |
| > 10 | 0.1 to 1 | 1 to 10 | < 0.1 | < 0.1 | NS(=O)(=O)Cc1cccc(Nc2ncnc(N3Cc4cn[nH]c4C3)n2)c1 [Compound B51, 3-[(4-(Pyrrolo[3,4-c]pyrazol-5(1H,4H,6H)-yl)-1,3,5-triazin-2-yl)amino]-benzenemethanesulfonamide] |
| > 10 | > 10 | > 10 | 0.1 to 1 | 0.1 to 1 | NS(=O)(=O)Cc1cccc(Nc2ncnc(N3CCCCC3)n2)c1 [Compound B1, 3-[(4-(Piperidin-1-yl)-1,3,5-triazin-2-yl)amino]benzenemethane sulfonamide] |
| > 10 | 0.1 to 1 | 0.1 to 1 | < 0.1 | < 0.1 | NS(=O)(=O)Cc1cccc(Nc2ncnc(N3CCc4ncccc4C3)n2)c1 [Compound B38, 3-[(4-(7,8-Dihydro-1,6-naphthyridin-6(5H)-yl)-1,3,5-triazin-2-yl)amino]-benzenemethanesulfonamide] |
| > 10 | 1 to 10 | 1 to 10 | < 0.1 | 0.1 to 1 | COC[C@H]1CCCN1c1ncnc(Nc2cccc(CS(N)(=O)=O)c2)n1 [Compound B17, (R)-3-[(4-(2-(Methoxymethyl)pyrrolidin-1-yl)-1,3,5-triazin-2-yl)amino]benzenemethanesulfonamide] |
